In article PMC9091059 (Nature biotechnology, 2021):
Where two headings read alike, the source gives them in different places.

Experiments:
[1] = test system: GRABeCBmut (eCBmut) sensor; format: cell-based, human; settings: cultured rat cortical neurons, even at 100 μM
wildtype CB1R = wildtype CB1R (Homo sapiens, UniProt P21554); test: Gq-i Ca2+ imaging assay; format: cell-based; settings: HEK293T cells expressing CB1R
eCBmut = test: BRET Gβγ sensor assay, cells expressing eCBmut; format: cell-based, human; settings: 20 μM 2-AG
[2] = test system: GRABeCBmut (eCBmut) sensor; test: eCBmut fluorescence response to ligands in HEK293T cells; format: cell-based, human; settings: all concentrations tested
eCB2.0 [3] = test: BRET Gβγ sensor assay, cells expressing eCB2.0; format: cell-based, human; settings: 20 μM 2-AG
human CB1R = human CB1R (Homo sapiens, UniProt P21554); test: BRET Gβγ sensor assay, cells expressing CB1R; format: cell-based; settings: 20 μM 2-AG
human CB1R, sequence (P21554 whole entry): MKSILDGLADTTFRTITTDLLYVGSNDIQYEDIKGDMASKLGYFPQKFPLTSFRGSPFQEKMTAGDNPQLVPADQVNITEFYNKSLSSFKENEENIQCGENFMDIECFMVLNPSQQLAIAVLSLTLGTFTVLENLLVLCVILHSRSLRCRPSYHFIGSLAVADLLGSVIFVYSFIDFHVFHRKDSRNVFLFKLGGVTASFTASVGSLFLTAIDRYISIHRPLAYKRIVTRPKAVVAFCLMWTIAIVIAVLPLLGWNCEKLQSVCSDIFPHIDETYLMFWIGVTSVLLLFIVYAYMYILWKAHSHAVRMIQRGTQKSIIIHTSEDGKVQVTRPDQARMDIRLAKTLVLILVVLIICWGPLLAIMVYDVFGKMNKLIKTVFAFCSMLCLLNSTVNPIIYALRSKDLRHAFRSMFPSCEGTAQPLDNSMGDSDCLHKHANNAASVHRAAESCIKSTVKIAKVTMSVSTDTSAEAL

eCB2.0 [4] = test: Gq-i Ca2+ imaging assay; format: cell-based, human; settings: HEK293T cells expressing eCB2.0
[5] = test system: spontaneous transient eCB2.0 signals in cultured neurons; format: cell-based, rat
[6] = test system: eCB2.0 fluorescence in hippocampal slices; test: 2-photon imaging of eCB2.0 in acute hippocampal CA1 slices; design: species or system mouse
[7] = test system: evoked eCB release in dorsolateral striatum (DLS) slices; design: species or system mouse
[8] = test system: stimulus-evoked eCB2.0 signal in cultured rat cortical neurons; format: cell-based; settings: 20 electrical pulses, 68 min after application; MAGL (JZL184) or FAAH (URB597) inhibition

wildtype CB1R, sequence (P21554 whole entry): as above

CCCCC/C=C\C/C=C\C/C=C\C/C=C\CCCC(=O)OC(CO)CO [2-AG, 2-arachidonoylglycerol]
eCBmut fluorescence response [1]: neither 2-AG nor AEA elicited a response | jRGECO1a Ca2+ response (G protein activation via Gαq-i) (wildtype CB1R): increased jRGECO1a fluorescent response in a dose-dependent manner | BRET change (Gβγ activation) (eCBmut): no effect on BRET | eCBmut fluorescence response [2]: no response | BRET change (Gβγ activation) (eCB2.0 [3]): no effect on BRET | BRET change (Gβγ activation) (human CB1R): robust increase in BRET | jRGECO1a Ca2+ response (G protein activation via Gαq-i) (eCB2.0 [4]): failed in inducing jRGECO1a response

CCCCC/C=C\C/C=C\C/C=C\C/C=C\CCCC(=O)NCCO [AEA, anandamide]
eCBmut fluorescence response [2]: no response

Cc1c(C(=O)NN2CCCCC2)nn(-c2ccc(Cl)cc2Cl)c1-c1ccc(I)cc1 [AM251]
effect on spontaneous eCB2.0 transients [5]: no longer observed | effect on AEA-induced eCB2.0 fluorescence increase [6]: reversed | effect on electrically evoked eCB2.0 signal [6]: eliminated the signal induced by even 100 field stimuli | effect on electrically evoked eCB2.0 signal [7]: blocked the response

O=C(Oc1ccc([N+](=O)[O-])cc1)N1CCC(C(O)(c2ccc3c(c2)OCO3)c2ccc3c(c2)OCO3)CC1 [JZL184]
effect on decay time constant of evoked eCB2.0 signal [8]: significantly increased the decay time constant

O=C(NN1CCCCC1)c1nn(-c2ccc(Cl)cc2Cl)c2c1CCCc1cc(Cl)ccc1-2 [NESS0327]
effect on spontaneous eCB2.0 transients ([5]; NESS0327 1 μM, TTX 1 μM): no longer observed

NC(=O)c1cccc(-c2cccc(OC(=O)NC3CCCCC3)c2)c1 [URB597]
effect on decay time constant of evoked eCB2.0 signal [8]: only a slight—albeit significant—effect on the decay time constant
